Holding throughout (type): biochemical
The target of one assay is JAK1 (Homo sapiens, UniProt P23458). Description: JAK kinase activity, homogeneous time-resolved fluorescence (JAK1 reaction system). Conditions: ATP 2 μM, JAK1 protein 0.2 ng/μL; read-out: JAK 1 activity. The essentials: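 HTRF assay: JAK1 (0.2 ng/μL) with 2 μM ATP and substrate in 50 mM Hepes pH 7.0, 5 mM MgCl2, 1 mM DTT, 1 h. Phospho-substrate antibody/XL-615 detection with EDTA; 665/615 nm ratio, excitation 320 nm. IC50 from Hill-type fit against no-enzyme and no-compound controls.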

The target of the next assay is JAK2 (Homo sapiens, UniProt O60674). Nature of the assay: JAK kinase activity, homogeneous time-resolved fluorescence (JAK2 reaction system). Particulars: ATP 2 μM, JAK2 protein 0.01 ng/μL. The essentials: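 IC50 derived by Hill-equation fit of the 665/615 nm time-resolved fluorescence ratio after EDTA-containing detection mix with anti-phosphosubstrate antibody. Preceding 1 h reaction contained 2 μM ATP, 0.01 ng/μL JAK2, substrate, 50 mM Hepes pH 7.0, 5 mM MgCl2, 1 mM DTT.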

For the next assay, the target named is T1, JAK3 (Homo sapiens, UniProt P52333).
T1 sequence (P52333 1-1124): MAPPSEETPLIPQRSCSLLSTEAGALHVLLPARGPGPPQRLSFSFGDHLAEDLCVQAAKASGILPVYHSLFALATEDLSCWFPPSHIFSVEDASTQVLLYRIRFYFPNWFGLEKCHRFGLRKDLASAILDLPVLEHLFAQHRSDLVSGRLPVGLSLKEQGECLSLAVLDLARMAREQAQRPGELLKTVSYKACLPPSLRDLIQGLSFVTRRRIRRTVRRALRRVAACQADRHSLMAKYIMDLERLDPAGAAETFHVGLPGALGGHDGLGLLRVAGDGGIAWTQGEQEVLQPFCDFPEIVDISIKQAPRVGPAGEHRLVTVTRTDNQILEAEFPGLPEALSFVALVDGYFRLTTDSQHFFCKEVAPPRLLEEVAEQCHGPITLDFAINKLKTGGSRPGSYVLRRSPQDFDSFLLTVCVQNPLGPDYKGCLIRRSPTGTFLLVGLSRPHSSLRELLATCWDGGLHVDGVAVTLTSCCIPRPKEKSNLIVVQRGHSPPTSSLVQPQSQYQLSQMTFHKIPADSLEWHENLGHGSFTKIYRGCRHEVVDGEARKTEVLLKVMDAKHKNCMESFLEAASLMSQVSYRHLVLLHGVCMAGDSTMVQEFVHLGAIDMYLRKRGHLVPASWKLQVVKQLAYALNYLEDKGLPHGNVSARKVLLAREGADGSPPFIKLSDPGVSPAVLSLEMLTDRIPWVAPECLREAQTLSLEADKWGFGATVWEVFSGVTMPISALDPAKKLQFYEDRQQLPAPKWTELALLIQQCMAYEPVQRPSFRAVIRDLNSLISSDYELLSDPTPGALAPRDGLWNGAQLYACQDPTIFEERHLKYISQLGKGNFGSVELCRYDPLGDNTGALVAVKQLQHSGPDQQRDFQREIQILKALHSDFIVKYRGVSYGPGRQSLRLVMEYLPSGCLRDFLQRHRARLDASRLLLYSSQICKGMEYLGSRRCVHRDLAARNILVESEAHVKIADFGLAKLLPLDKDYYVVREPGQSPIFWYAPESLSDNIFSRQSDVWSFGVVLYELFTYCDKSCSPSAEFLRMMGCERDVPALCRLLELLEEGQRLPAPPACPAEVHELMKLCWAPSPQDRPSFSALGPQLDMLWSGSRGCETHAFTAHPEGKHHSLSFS
Description: JAK kinase activity, homogeneous time-resolved fluorescence (JAK3 reaction system). Particulars: ATP 2 μM, JAK3 protein 0.04 ng/μL; read-out: JAK 3 activity.

For another assay, the target named is TYK2 (Homo sapiens, UniProt P29597). Nature of the assay: JAK kinase activity, homogeneous time-resolved fluorescence (TYK2 reaction system). Conditions: ATP 2 μM, TYK2 protein 0.2 ng/μL; read-out: TYK 2 activity. The essentials:
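Activity read as the 665 nm/615 nm ratio after adding EDTA-containing detection mix with anti-phospho-substrate antibody and XL-615. Beforehand, 0.2 ng/μL TYK2, 2 μM ATP, substrate and compound reacted 1 h in pH 7.0 Hepes buffer with MgCl2 and DTT. IC50 fitted with Hill-slope equation.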

16 compounds from patent US20230203059A1, “MACROCYCLIC JAK INHIBITOR AND USES THEREOF” (Biopolar Hongye (Guangdong) Pharmaceutical Co. Ltd., priority 2020, published 2023) can be followed below.

Sequence of JAK2 (O60674 whole entry): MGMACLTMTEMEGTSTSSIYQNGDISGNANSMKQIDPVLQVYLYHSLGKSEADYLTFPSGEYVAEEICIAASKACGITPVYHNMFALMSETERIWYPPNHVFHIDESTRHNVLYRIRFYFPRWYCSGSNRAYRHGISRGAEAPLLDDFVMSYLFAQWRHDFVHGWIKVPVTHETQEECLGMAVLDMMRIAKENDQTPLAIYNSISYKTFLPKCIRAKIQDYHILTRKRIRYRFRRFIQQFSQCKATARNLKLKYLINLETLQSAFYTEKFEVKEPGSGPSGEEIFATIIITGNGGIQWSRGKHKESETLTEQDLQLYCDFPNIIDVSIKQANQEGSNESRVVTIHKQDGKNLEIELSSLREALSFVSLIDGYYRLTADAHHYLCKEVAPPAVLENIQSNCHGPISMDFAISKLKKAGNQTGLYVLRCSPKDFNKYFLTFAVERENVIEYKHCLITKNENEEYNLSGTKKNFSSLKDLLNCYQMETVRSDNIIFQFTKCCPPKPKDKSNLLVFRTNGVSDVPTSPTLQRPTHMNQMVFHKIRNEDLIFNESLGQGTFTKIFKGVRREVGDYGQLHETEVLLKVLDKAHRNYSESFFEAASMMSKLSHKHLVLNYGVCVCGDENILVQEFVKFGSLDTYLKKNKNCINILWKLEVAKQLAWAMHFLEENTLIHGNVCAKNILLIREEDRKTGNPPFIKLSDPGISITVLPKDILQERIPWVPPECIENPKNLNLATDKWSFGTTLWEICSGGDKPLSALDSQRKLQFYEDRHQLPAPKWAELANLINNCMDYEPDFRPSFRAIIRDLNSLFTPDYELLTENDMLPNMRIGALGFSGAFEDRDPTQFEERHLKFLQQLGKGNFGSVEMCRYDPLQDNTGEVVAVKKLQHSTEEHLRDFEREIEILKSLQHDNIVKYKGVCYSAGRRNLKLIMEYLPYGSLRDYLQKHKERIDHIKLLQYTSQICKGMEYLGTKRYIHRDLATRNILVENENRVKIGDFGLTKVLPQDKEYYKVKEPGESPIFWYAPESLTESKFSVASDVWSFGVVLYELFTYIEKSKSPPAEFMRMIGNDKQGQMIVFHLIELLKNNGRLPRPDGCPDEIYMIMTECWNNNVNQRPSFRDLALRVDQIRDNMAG
Sequence of JAK1 (P23458 whole entry): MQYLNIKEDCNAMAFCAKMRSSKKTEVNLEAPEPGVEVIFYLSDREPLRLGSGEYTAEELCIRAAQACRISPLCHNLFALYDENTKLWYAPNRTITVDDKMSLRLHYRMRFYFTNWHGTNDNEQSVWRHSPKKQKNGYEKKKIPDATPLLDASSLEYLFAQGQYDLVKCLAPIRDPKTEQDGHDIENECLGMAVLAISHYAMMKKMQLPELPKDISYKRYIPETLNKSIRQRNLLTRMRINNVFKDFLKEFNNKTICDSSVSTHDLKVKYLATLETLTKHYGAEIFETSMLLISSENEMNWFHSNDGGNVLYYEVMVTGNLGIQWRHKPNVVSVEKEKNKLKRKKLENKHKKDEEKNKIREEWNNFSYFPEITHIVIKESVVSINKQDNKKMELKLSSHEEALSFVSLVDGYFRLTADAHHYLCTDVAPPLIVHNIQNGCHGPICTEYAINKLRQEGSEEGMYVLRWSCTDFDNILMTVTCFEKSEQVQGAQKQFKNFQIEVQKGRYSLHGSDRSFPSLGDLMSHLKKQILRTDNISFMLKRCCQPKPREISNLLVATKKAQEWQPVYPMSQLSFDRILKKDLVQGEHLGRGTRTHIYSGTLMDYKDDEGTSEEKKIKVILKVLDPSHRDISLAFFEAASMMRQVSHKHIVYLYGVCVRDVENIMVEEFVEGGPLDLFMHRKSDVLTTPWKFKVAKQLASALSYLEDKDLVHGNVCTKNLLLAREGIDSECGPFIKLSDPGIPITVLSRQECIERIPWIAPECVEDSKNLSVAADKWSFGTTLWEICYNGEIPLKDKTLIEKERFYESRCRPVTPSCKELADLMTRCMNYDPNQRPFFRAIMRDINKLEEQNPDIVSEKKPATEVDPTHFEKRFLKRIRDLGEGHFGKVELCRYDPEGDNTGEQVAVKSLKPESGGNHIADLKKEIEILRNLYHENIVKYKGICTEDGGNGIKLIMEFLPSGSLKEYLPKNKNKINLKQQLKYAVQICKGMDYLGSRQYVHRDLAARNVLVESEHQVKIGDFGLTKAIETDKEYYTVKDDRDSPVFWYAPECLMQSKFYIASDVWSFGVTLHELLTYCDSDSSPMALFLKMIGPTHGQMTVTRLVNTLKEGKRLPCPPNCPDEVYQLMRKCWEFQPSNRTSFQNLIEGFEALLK
Sequence of TYK2 (P29597 whole entry): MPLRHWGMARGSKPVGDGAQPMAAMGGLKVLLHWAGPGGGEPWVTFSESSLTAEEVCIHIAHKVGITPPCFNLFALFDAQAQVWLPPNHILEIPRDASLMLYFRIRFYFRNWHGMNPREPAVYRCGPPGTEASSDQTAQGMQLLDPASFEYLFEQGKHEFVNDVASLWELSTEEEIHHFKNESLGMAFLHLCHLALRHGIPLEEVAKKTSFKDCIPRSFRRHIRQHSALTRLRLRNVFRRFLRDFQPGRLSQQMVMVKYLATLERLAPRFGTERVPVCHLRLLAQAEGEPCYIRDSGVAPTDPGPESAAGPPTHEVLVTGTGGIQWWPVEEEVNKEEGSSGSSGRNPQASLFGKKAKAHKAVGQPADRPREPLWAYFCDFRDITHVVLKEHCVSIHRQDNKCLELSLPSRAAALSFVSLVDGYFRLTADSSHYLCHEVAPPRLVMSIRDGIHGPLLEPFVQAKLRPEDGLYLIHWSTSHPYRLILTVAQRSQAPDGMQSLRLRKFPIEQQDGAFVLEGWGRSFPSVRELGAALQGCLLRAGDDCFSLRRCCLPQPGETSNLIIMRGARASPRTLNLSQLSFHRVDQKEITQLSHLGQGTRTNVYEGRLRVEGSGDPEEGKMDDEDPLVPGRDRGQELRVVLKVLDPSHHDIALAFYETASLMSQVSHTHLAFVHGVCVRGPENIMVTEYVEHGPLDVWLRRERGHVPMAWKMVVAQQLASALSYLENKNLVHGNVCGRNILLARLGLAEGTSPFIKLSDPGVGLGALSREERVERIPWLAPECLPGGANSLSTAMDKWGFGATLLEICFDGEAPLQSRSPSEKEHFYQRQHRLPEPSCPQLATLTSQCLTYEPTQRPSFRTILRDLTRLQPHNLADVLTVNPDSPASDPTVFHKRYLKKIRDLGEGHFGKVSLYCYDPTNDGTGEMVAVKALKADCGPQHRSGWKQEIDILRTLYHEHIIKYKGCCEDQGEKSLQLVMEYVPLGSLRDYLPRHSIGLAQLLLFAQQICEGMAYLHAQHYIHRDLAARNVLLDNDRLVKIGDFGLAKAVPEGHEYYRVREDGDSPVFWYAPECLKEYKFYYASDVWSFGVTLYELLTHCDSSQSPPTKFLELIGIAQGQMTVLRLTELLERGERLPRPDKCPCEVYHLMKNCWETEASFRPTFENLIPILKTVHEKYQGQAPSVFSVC

Take `COc1cc(F)cc(F)c1COc1ccc2cc1COCC[C@@H](C)CNC(=O)c1ccc(c(N)c1)-c1ccnc(n1)N2` [Example 188, (R)-1^2-amino-4^4-((2,4-difluoro-6-methoxybenzyl)oxy)-9-methyl-6-o-xa-3,11-diaza-2(4,2)-pyrimidina-1(1,4),4(1,3)-dibenzenacyclo-dodecaphan-12-one]: the IC50 at JAK1 was 1000 to 10000 nM; on JAK2, 101 to 1000 nM; on JAK3, 11 to 100 nM; at TYK2, 1000 to 10000 nM.
With `CC(C)Oc1ccc2cc1COCC[C@H](C)CNC(=O)c1ccc(c(N)c1)-c1ccnc(n1)N2` [Example 189, (S)-1^2-amino-4^4-isopropoxy-9-meth-yl-6-oxa-3,11-diaza-2(4,2)-pyrimi-dina-1(1,4),4(1,3)-dibenzenacyclo-dodecaphan-12-one], the IC50 at JAK1 was 101 to 1000 nM; against JAK2 it was 101 to 1000 nM; on JAK3, 11 to 100 nM; on TYK2, over 10000 nM.
On to `C[C@H]1CCOCc2cc(ccc2OC2CCCC2)Nc2nccc(n2)-c2ccc(cc2N)C(=O)NC1` [Example 190], for which the IC50 lay in the range of 1000 to 10000 nM on JAK1, 101 to 1000 nM on JAK2, 11 to 100 nM at JAK3 and 1000 to 10000 nM at TYK2.
Consider `COc1cc(F)cc(F)c1COc1ccc2cc1COCC[C@H](C)CNC(=O)c1ccc(c(N)c1)-c1ccnc(n1)N2` [Example 191, (S)-1^2-amino-4^4-((2,4-difluoro-6-methoxybenzyl)oxy)-9-methyl-6-x-xa-3,11-diaza-2(4,2)-pyrimidina-1(1,4),4(1,3)-dibenzenacyclo-dodecaphan-12-one], for which the IC50 was 1000 to 10000 nM on JAK1, 1000 to 10000 nM against JAK2, 101 to 1000 nM on JAK3 and 1000 to 10000 nM at TYK2.
Turning to `COc1cccc(F)c1COc1ccc2cc1COCC[C@H](C)CNC(=O)c1ccc(c(N)c1)-c1ccnc(n1)N2` [Example 192, (S)-1^2-amino-4^4-((2-fluoro-6-meth-oxybenzyl)oxy)-9-methyl-6-oxa-3,11-diaza-2(4,2)-pyrimidina-1(1,4),4(1,3)-dibenzenacyclo-dodecaphan-12-one], the IC50 at JAK1 was 1000 to 10000 nM; against JAK2 it was 1000 to 10000 nM; on JAK3, 101 to 1000 nM; at TYK2, over 10000 nM.
In the case of `COc1cc(Cl)cc(F)c1COc1ccc2cc1COCCCCNC(=O)c1ccc(c(N)c1)-c1ccnc(n1)N2` [Example 193, 1^2-amino-4^4-((4-chloro-2-fluoro-6-methoxybenzyl)oxy)-6-oxa-3,11-diaza-2(4,2)-pyrimidina-1(1,4),4(1,3)-dibenzenacyclododecaphan-12-one], the IC50 on JAK1 lay within 1000 to 10000 nM; against JAK2, 1000 to 10000 nM; on JAK3 it was 11 to 100 nM; on TYK2, 1000 to 10000 nM.
As for `COc1cc(F)cc(C#N)c1COc1ccc2cc1COCCCCNC(=O)c1ccc(c(N)c1)-c1ccnc(n1)N2` [Example 194, 2-(((1^2-amino-12-oxo-6-oxo-3,11-diaza-2(4,2)-pyrimidina-1(1,4),4(1,3)-dibenzenacyclododecaphan-4^4-yl)oxy)methyl)-5-fluoro-3-methoxy-benzonitrile], the IC50 at JAK1 is 1000 to 10000 nM; against JAK2, 101 to 1000 nM; on JAK3, 11 to 100 nM; at TYK2, over 10000 nM.
The like results for `COc1cc(F)cc(Cl)c1COc1ccc2cc1COCCCCNC(=O)c1ccc(c(N)c1)-c1ccnc(n1)N2` [Example 195, 1^2-amino-4^4-((2-chloro-4-fluoro-6-methoxybenzyl)oxy)-6-oxa-3,11-diaza-2(4,2)-pyrimidina-1(1,4),4(1,3)-dibenzenacyclododecaphan-12-one] were, in that order, 1000 to 10000 nM, 1000 to 10000 nM, 11 to 100 nM and 1000 to 10000 nM.
In the same order, the values of `COc1cc(C#N)cc(F)c1COc1ccc2cc1COCCCCNC(=O)c1ccc(c(N)c1)-c1ccnc(n1)N2` [Example 196, 4-(((1^2-amino-12-oxo-6-oxa-3,11-diaza-2(4,2)-pyrimidina-1(1,4),4(1,3)-dibenzenacyclododecaphan-4^4-yl)oxy)methyl)-3-fluoro-5-methoxy-benzonitrile] are 1000 to 10000 nM, 101 to 1000 nM, under 10 nM and 1000 to 10000 nM.
The like results for `Nc1cc2ccc1-c1ccnc(n1)Nc1ccc(OC3CCCOC3)c(c1)COc1ccc(cc1)NC2=O` (stereo not shown) [Example 197, 1^2-amino-4^4-((tetrahydro-2H-pyran-3-yl)oxy)-6-oxa-3-8-diaza-2 (4,2)-pyrimidina-1,7(1,4), 4 (1,3)-tribenzenacyclononaphane-9-one] were, in that order, 1000 to 10000 nM, 101 to 1000 nM, 11 to 100 nM and 1000 to 10000 nM.
On to `CC(C)Oc1ccc2cc1COc1ccc(cc1)NC(=O)c1ccc(c(N)c1)-c1ccnc(n1)N2` [Example 198, 1^2-amino-4^4-isopropoxy-6-oxa-3,8-diaza-2(4,2)-pyrimidina-1,7(1,4),4(1,3)-tribenzenacyclononaphane-9-one], for which the IC50 lay within 1000 to 10000 nM on JAK1, 101 to 1000 nM on JAK2, 11 to 100 nM at JAK3 and 1000 to 10000 nM on TYK2.
As for `Nc1cc2ccc1-c1ccnc(n1)Nc1ccc(OC3CC3)c(c1)COc1ccc(cc1F)NC2=O` [Example 199, 1^2-amino-4^4-cyclopropoxy-7^2-fluoro-6-oxa-3,8-diaza-2(4,2)-pyrimidina-1,7(1,4),4(1,3)-tribenzenacyclonona-phane-9-one], the IC50 was in the range of 101 to 1000 nM on JAK1, 1000 to 10000 nM against JAK2, 11 to 100 nM at JAK3 and 1000 to 10000 nM on TYK2.
Turning to `Nc1cc2ccc1-c1ccnc(n1)Nc1ccc(OC3CC3)c(c1)COc1ccc(cc1)NC2=O` [Example 200, 1^2-amino-4^4-cyclopropoxy-6-oxa-3,8-diaza-2(4,2)-pyrimidina-1,7(1,4),4(1,3)-tribenzenacyclononanphane-9-one], the IC50 at JAK1 was 1000 to 10000 nM; on JAK2 it was 101 to 1000 nM; at JAK3, 11 to 100 nM; at TYK2, over 10000 nM.
In the same order, the values of `CC(C)COc1ccc2cc1COc1ccc(cc1)NC(=O)c1ccc(c([N+](=O)[O-])c1)-c1ccnc(n1)N2` [Example 201, 4^4-isobutoxy-1^2-nitro-6-oxa-3,8-dia-za-2(4,2)-pyrimidina-1,7(1,4),4(1,3)-tribenzenacyclononaphane-9-one] are over 10000 nM, over 10000 nM, 1000 to 10000 nM and over 10000 nM.
Turning to `CC(C)COc1ccc2cc1COc1ccc(cc1)NC(=O)c1ccc(c(N)c1)-c1ccnc(n1)N2` [Example 202, 1^2-amino-4^4-isobutoxy-6-oxa-3,8-di-aza-2(4,2)-pyrimidina-1,7(1,4),4(1,3)-tribenzenacyclononaphane-9-one], the IC50 at JAK1 is 1000 to 10000 nM; against JAK2, 1000 to 10000 nM; at JAK3, 11 to 100 nM; at TYK2, over 10000 nM.
Turning to `O=C1Nc2ccc(cc2)OCc2cc(ccc2OC2CCCOC2)Nc2nccc(n2)-c2ccc1cc2[N+](=O)[O-]` (stereo not shown) [Example 203, 1^2-nitro-4^4-((tetrahydro-2H-pyran-3-yl)oxy)-6-oxa-3,8-diaza-2(4,2)-pyri-midina-1,7(1,4),4(1,3)-tribenzenacyclo-nonaphane-9-one], the IC50 was 1000 to 10000 nM at JAK1, 1000 to 10000 nM against JAK2, 101 to 1000 nM on JAK3 and over 10000 nM at TYK2.
